From US20060046972A1, “Cytotoxic nucleoside analog compound 003 for treating cancer” (Parker Hughes Institute, priority 2004, published 2006)

Tested on: human infant leukemia (RS4; 11)
Test: DNA flow cytometry of cell cycle arrest, RS4;11
Format: cell-based
Conditions: 100 μM, 48 hour
Procedure: Exponentially growing tumor cells were cultured at 1×10^6 cells/ml in clonogenic medium (RPMI 1640 medium +1% penicillin/streptomycin +10% heat-inactivated fetal bovine serum, 2 mML-glutamine, and 10 mM Hepes buffer) in the presence or absence of 100 μM compound 003 for 48 hour at 37° C., 5% CO2. At 48 h, cells were washed two times in fresh clonogenic medium, trypsinized, fixed in ice cold ethanol and labeled with propidium iodide to quantify their DNA content, as described previously (See, for example, Navara, et al., 2001, Anticancer Drugs. 12:369). Quantitative DNA analysis was performed on a Becton Dickenson Calibur flow cytometer equipped with a Consort 40 computer using the COTFIT program, which includes CELLCY, a cell cycle distribution function that fits DNA content histograms and calculates-the percentages of cells in G, S, and GM phases of the cell cycle, as described, for example, in Uckun et al., 1996, J Biol Chem. 271, 6389.

With `COC(=O)C(C)NP(=O)(OCC1OC(n2cc(C)c(=O)[nH]c2=O)CC1N=[N+]=[N-])Oc1ccc(OC)cc1` (stereo not shown) [Compound 003, 3′-azidothymidine 5′-[p-methoxyphenylmethoxyalaninyl phosphate]] the cell cycle arrest was “G2M cell cycle arrest”.
